Laboratory results: ChEMBL document CHEMBL6103659, “Structural Studies of the Dopamine D4 Receptor Antagonist Sonepiprazole as an Inhibitor of Human Carbonic Anhydrases” (ACS Med Chem Lett, 2025)

How the values were obtained:
[1] = target: Carbonic anhydrase 1 (Homo sapiens, UniProt P00915)
[2] = target: Carbonic anhydrase 2 (Homo sapiens, UniProt P00918)
[3] = target: Carbonic anhydrase 3 (Homo sapiens, UniProt P07451)
[4] = target: Carbonic anhydrase 7 (Homo sapiens, UniProt P43166)
[5] = target: Carbonic anhydrase 9 (Homo sapiens, UniProt Q16790)
[6] = target: Carbonic anhydrase 12 (Homo sapiens, UniProt O43570)
Chain of Carbonic anhydrase 12 (O43570 whole entry): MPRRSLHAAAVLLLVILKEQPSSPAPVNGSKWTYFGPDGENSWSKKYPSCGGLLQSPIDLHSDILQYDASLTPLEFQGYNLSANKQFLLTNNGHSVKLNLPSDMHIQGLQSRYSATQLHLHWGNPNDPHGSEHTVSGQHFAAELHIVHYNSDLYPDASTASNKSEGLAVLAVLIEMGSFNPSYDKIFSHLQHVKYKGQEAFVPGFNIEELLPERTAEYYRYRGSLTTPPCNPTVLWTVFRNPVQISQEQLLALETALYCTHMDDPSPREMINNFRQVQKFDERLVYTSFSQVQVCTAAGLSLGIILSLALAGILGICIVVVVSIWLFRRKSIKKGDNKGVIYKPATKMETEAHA

Chain of Carbonic anhydrase 3 (P07451 whole entry): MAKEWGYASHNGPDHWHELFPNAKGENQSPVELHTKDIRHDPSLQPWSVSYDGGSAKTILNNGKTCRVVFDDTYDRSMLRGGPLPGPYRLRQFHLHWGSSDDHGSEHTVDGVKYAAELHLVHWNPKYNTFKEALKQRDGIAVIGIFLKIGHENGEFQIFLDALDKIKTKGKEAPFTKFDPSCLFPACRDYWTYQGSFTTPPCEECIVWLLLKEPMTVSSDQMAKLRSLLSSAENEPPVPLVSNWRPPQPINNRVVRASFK
Chain of Carbonic anhydrase 1 (P00915 whole entry): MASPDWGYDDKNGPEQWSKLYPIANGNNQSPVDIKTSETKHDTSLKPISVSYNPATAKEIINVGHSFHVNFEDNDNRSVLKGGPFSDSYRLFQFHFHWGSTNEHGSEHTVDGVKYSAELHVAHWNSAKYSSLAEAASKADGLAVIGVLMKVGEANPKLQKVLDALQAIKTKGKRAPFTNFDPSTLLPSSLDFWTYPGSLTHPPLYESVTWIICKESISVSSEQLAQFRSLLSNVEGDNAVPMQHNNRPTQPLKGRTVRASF
Chain of Carbonic anhydrase 7 (P43166 whole entry): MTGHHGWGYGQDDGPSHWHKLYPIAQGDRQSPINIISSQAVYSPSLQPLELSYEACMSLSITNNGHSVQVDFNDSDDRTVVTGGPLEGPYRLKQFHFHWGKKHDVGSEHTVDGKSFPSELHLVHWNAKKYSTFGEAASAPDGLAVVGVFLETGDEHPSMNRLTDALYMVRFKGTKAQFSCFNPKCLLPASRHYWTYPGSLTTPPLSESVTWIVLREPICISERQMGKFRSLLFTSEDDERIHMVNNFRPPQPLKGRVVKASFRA

Row | Ki [1] [nM] | Ki [2] [nM] | Ki [3] [nM] | Ki [4] [nM] | Ki [5] [nM] | Ki [6] [nM] | SMILES
1 | 2720 | 406 | > 10000 | 978 | 31.1 | 23.9 | C=CCN1CCCC1CNC(=O)c1cc(S(N)(=O)=O)cc(OC)c1OC (configuration not stated) [VERALIPRIDE]
2 | – | – | > 10000 | – | – | – | NS(=O)(=O)c1ccc(N2CCN(CC[C@@H]3OCCc4ccccc43)CC2)cc1 [SONEPIPRAZOLE]
